The record followed here is patent US5342850A, “Thiazolidine-2,4-dione derivatives, their salts and their preparation processes” (Kyorin Pharmaceutical Co., Ltd., priority 1991, dated 1994).

For assay [1], the system named is blood glucose. In words: Enhancement of insulin sensitivity in rats. To be noted: 10 mg/kg/day p.o. once daily for 5 days; fasted 18 hours; insulin 0.1 unit/kg i.p.; n=5; *P < 0.01. The assay is classed as in vivo. The procedure: Blood samples were collected from the tail vein 0 and 1 hour after the injection of insulin for the determination of blood glucose (Table 1).

Assay [2] has as its system blood glucose. In words: Improvement of glucose tolerance in genetically obese mice (OGTT). It counts as in vivo, Genetically obese mice (CS57BL ob/ob mice). To be noted: fasted 18 hours, 2 g/kg glucose orally, blood at 0, 30, 60, 120 min. The procedure: Improvement of glucose tolerance in genetically obese mice
Genetically obese mice (CS57BL ob/ob mice) were orally administered with the compound of Example 23 once daily for 5 days at 10, 30 or 100 mg/kg/day, respectively. They were fasted for 18 hours and then 2 g/kg of glucose was orally administered. Blood samples were collected from the tail vein 0, 30, 60 and 120 minutes after the administration of glucose for the determination of blood glucose (Table 2).

The target of assay [3] is T1, aldose reductase extracted from rat lens (Rattus norvegicus, UniProt P07943).
T1 construct: aldose reductase extracted from rat lens; from tissue; host or cells: rat lens
In words: Inhibition of aldose reductase in vitro. As to conditions: method of Hyman and Kinoshita. The assay is classed as biochemical. The source says: Inhibition of aldose reductase in vitro
According to the method of Hyman and Kinoshita (J. Biol. Chem., 240, 877, 1965), inhibitory activity of the compound of Example 23 on aldose reductase extracted from rat lens was investigated. As a result, the following IC50 value was obtained (Table 3).

The test system of assay [4] is sorbitol content in nerve. In words: Inhibition on sorbitol accumulation in nerve of diabetic rats. It counts as in vivo. As to conditions: Rattus norvegicus, po, 336 h, streptozotocin rats, 4, 16 or 64 mg/kg/day p.o. once daily 2 weeks. The protocol: (§1) Inhibition on sorbitol accumulation in tissues of diabetic rats
(§2) After diabetic rats were prepared by injecting streptozotocin, they were orally administered with the compound of Example 23 once daily 2 weeks at 4, 16 or 64 mg/kg/day, respectively. The sorbitol content in nerve and retina was determined to calculate ED50 value (Table 4).

Assay [5] deals with sorbitol content in retina. Nature of the assay: Inhibition on sorbitol accumulation in retina of diabetic rats. It counts as in vivo. To be noted: Rattus norvegicus, po, 336 h, streptozotocin rats, 4, 16 or 64 mg/kg/day p.o. once daily 2 weeks. The procedure:
as §1, §2

As for `O=C1NC(=O)C(c2ccc(NC(=O)c3ccc(Cl)cc3Cl)cc2)S1` (stereo not shown) [Example 23], the “0 hour value - 1 hour value (blood glucose)” value in assay [1] is 19.4 ± 1.5 mg %. In addition, the “OGTT (% of control)” value was 93.5 % of control in assay [2] (10 mg/kg/day p.o. once daily for 5 days), 89.2 % of control in assay [2] (30 mg/kg/day p.o. once daily for 5 days) and 74.1 % of control in assay [2] (100 mg/kg/day p.o. once daily for 5 days). The same compound had a half-inhibitory concentration (IC50) in assay [3] of 90 nM. In addition, the median effective dose (ED50) in assay [4] worked out at 14.5 mg/kg; in assay [5], 26.5 mg/kg.

In general, IC50 refers to the concentration that inhibits the measured activity by half. A higher IC50 goes with lower potency. The term ED50 denotes the dose at which the effect has come halfway, by size or by number of responders. The low end stands for greater potency, the high end for weaker potency.
